Where a name gives a salt, the structure may show the parent alone.
Assay: In vivo pharmacokinetics in CD-1 mice
Details: male CD-1 mice
Method: CD-1 mice (male, 7-9 weeks old, Shanghai Slac)
The rodent pharmacokinetic characteristics after intravenous injection and oral administration of the compounds were tested by standard protocols, in the experiment, the candidate compounds were formulated into clear solutions and administrated to mice via a single intravenous injection and oral administration. The vehicle for intravenous injection and oral administration was a mixed solution of 10% of dimethyl sulfoxide and 90% of 10% hydroxypropyl β cyclodextrin. This project used four male CD-1 mice, two mice were administered intravenously, with a dose of 1 mg/kg, and plasma samples were collected at 0 hour (before administration) and 0.0833, 0.25, 0.5, 1, 2, 4, 8, 24 hours after administration. The other two mice were orally administered by gavage, with a dose of 2 mg/kg, plasma samples were collected at 0 hour (before administration) and 0.25, 0.5, 1, 2, 4, 8, 24 hours after administration, whole blood samples were collected within 24 hours, which were centrifuged at 3000 g for 15 minutes, and the supernatants were separated to obtain plasma samples, 4 times volume of acetonitrile solutions containing internal standard were added to precipitate the protein, the mixtures were centrifuged to obtain the supernatants, the supernatants were added with water of equal volume and centrifuged again to take the supernatant for injection, and the blood drug concentration was quantitatively analyzed by the LC-MS/MS analysis method, and pharmacokinetic parameters were calculated, such as max concentration (Cmax), clearance (CL), half-life (T1/2), volumes of distribution (Vdss), the area under the plasma concentration-time curve (AUC0-last), bioavailability (F) etc.

- Half-life T1/2 (IV) (IV 1 mg/kg, 1 mg/kg): 1.54 h
- clearance (male, CD-1, mouse, plasma, iv, 1 mg/kg, study doses 1 mg/kg intravenous, 2 mg/kg oral, read-out: Clearance CL): 40.2 mL/min/kg
- Vd (male, CD-1, mouse, plasma, iv, 1 mg/kg, study doses 1 mg/kg intravenous, 2 mg/kg oral, read-out: Volumes of distribution Vdss): 1.19 L/kg
- Cmax (male, CD-1, mouse, plasma, study doses 1 mg/kg intravenous, 2 mg/kg oral, route not given, read-out: Max concentration Cmax): 718 nM
- AUC(0-t) (male, CD-1, mouse, plasma, po, 2 mg/kg, PO 2 mg/kg, read-out: The area under the plasma concentration-time curve AUC0-last PO): 0.691 µM·h
- bioavailability (male, CD-1, mouse, plasma, po, 2 mg/kg, oral 2 mg/kg vs intravenous 1 mg/kg, read-out: Bioavailability F): 33.2%
Structure (SMILES): O=C(O)c1ccc(CN2CCC3(CC2)CC(N[C@@H]2C[C@H]2c2ccccc2)CO3)cc1 (stereo partly drawn) [Hydrochloride of the compound 6]

From US11649245B2, “Cyclopropylamine compound as LSD1 inhibitor and use thereof” (HELIOEAST PHARMACEUTICAL CO., LTD., priority 2018, dated 2023)
